Source: patent EP4768499A1, “MACROCYCLIC PEPTIDE COMPOUND HAVING CELL MEMBRANE PERMEABILITY AND METABOLIC STABILITY, AND LIBRARY CONTAINING SAME” (Chugai Seiyaku Kabushiki Kaisha, priority 2023, dated 2025)
Like-named read-outs stand apart in the source and are kept apart here. Starred links: 1 amine or outer side, 2 acyl side, 3 side chain; linkers in the order of their positions; H or OH if unused. Positions of bridges follow the written chain, without caps; N, C: chain ends. Non-standard residues stand in square brackets, D forms with d. Residues, ends and D or L forms follow the SMILES beside them. *: point of attachment. NMedβ3hAla = C[C@H](CC(=O)[*:2])N(C)[*:1]; NMeF = CN[C@@H](Cc1ccccc1)C(=O)O; NMeI = CC[C@H](C)[C@H](NC)C(=O)O; NMeT = CN[C@H](C(=O)O)[C@@H](C)O; hPhe = N[C@@H](CCc1ccccc1)C(=O)O; NMeβAla = CN(CCC(=O)[*:2])[*:1]; NMeD = CN[C@@H](CC(=O)O)C(=O)O; NMeL = CN[C@@H](CC(C)C)C(=O)O; NMeV = CN[C@H](C(=O)O)C(C)C; NMeAbu = CC[C@H](NC)C(=O)O; NMeA = CN[C@@H](C)C(=O)O; Piperidide = C1CCN(*)CC1; Abu = CC[C@H](N)C(=O)O; NBuGly = CCCCNCC(=O)O; βAla = NCCC(=O)O; Sar = CNCC(=O)O; tBu = CC(C)(C)*

Legend:
[1] = Metabolic stability test: liver microsomal stability assay; format: in vitro ADME, mouse; details: for microsomal CLint at 1 µM: male, pH 7.4, presence of NADPH, read-out: Mouse Hepatic Microsome CLh,int NADPH(+)
[2] = Membrane permeability test using Caco-2 cells with preincubation; format: in vitro ADME; details: Caco-2
Caco-2 cells = test: as above; format: in vitro ADME
[3] = mouse liver microsomes 0.5 mg protein/mL, compound 1 µM
[4] = mouse liver microsomes 0.5 mg protein/mL, compound 1 µM, absence of NADPH
[5] = preincubation 20 to 24 hours, Apical FaSSIF/HBSS pH 6.0, Basal HBSS 4% BSA pH 7.4, 180 minutes, read-out: Caco2 Papp
[6] = Caco-2 cells, preincubation 20 to 24 hours, apical FaSSIF/HBSS 1% DMSO pH 6.0, basal HBSS 4% BSA pH 7.4, basal sample at 180 minutes

Row | SMILES | microsomal CLint at 1 µM [1, 3] | Mouse Hepatic Microsome CLh,int NADPH(-) [1, 4] | Papp A→B [2, 5] | Caco2 Papp (10^-6 cm/sec) (Caco-2 cells; [6]) | Mouse Hepatic Microsome CLh,int NADPH(-) [1] | Papp A→B [2] | Caco2 Papp (10^-6 cm/sec) (Caco-2 cells; Caco-2)
1 | CC[C@@H]1NC(=O)[C@@H]2CCCN2C(=O)[C@H](CC(C)C)N(C)C(=O)[C@H](C(C)C)NC(=O)[C@H](CC(C)C)N(C)C(=O)[C@H]([C@@H](C)O)NC(=O)[C@H](Cc2ccccc2)N(C)C(=O)CN(C)C(=O)C[C@@H](C)N(C)C(=O)[C@H](C(C)C)NC(=O)[C@H](COC(C)(C)C)NC(=O)[C@H](C)N(C)C(=O)[C@H](CC(C)C)NC(=O)[C@H](Cc2ccccc2)N(C)C1=O [pd067] (cyclo([Abu][NMeF]L[NMeA]S(tBu)V[NMedβ3hAla][Sar][NMeF]T[NMeL]V[NMeL]P)) | 17 µL/min/mg | 10.8 µL/min/mg Protein | < 0.12 ×10⁻⁶ cm/s | <0.12 10^-6 cm/sec |  |  | 
2 | CC[C@@H]1NC(=O)[C@H](C(C)C)N(C)C(=O)[C@H](C)N(C)C(=O)[C@H](C(C)C)N(C)C(=O)[C@H](CC)N(C)C(=O)[C@H](Cc2ccccc2)N(C)C(=O)[C@H]([C@@H](C)O)N(C)C(=O)CNC(=O)[C@H](CC(C)C)N(C)C(=O)[C@H](C(C)C)NC(=O)[C@H](COC(C)(C)C)NC(=O)[C@H](CC(C)C)N(C)C(=O)[C@@H](C(C)C)NC(=O)C[C@@H](C)N(C)C1=O [pd068] (cyclo([Abu][NMedβ3hAla][dV][NMeL]S(tBu)V[NMeL]G[NMeT][NMeF][NMeAbu][NMeV][NMeA][NMeV])) | 15.7 µL/min/mg | 12.5 µL/min/mg Protein | 0.27 ×10⁻⁶ cm/s | 0.27 10^-6 cm/sec |  |  | 
3 | CC[C@@H]1NC(=O)[C@H]([C@@H](C)O)NC(=O)[C@H](Cc2ccccc2)N(C)C(=O)[C@H](CC(C)C)N(C)C(=O)[C@H](C(C)C)NC(=O)[C@H]([C@@H](C)CC)N(C)C(=O)[C@H]([C@@H](C)CC)NC(=O)[C@H](CC(C)C)N(C)C(=O)[C@H](C)N(C)C(=O)[C@H](C)NC(=O)C[C@@H](C)N(C)C(=O)[C@H](CC(C)C)N(C)C(=O)[C@H](C)N(C)C(=O)CN(C)C1=O [pd069] (cyclo(A[NMeA][NMeL]I[NMeI]V[NMeL][NMeF]T[Abu][Sar][NMeA][NMeL][NMedβ3hAla])) | 16.5 µL/min/mg | 20.5 µL/min/mg Protein | < 0.08 ×10⁻⁶ cm/s | <0.08 10^-6 cm/sec |  |  | 
4 | CC[C@@H]1NC(=O)[C@H](Cc2ccccc2)N(C)C(=O)[C@@H]2CCCN2C(=O)[C@H](CC(C)C)N(C)C(=O)[C@H](CC)NC(=O)[C@H](C(C)C)NC(=O)[C@H](CC(C)C)N(C)C(=O)[C@H]([C@@H](C)O)NC(=O)[C@H](Cc2ccccc2)N(C)C(=O)CN(C)C(=O)C[C@@H](C)N(C)C(=O)[C@H](C(C)C)NC(=O)[C@H](CC)N(C)C(=O)[C@H](C)N(C)C1=O [pd070] (cyclo([Abu][NMeA][NMeAbu]V[NMedβ3hAla][Sar][NMeF]T[NMeL]V[Abu][NMeL]P[NMeF])) | 15 µL/min/mg | 14.6 µL/min/mg Protein | 0.03 ×10⁻⁶ cm/s | 0.03 10^-6 cm/sec |  |  | 
5 | CC[C@H]1C(=O)N(C)[C@H](C)CC(=O)N[C@H](C(C)C)C(=O)N(C)[C@@H](CC(C)C)C(=O)N(C)[C@@H](C(C)C)C(=O)N[C@@H](C)C(=O)N(C)[C@@H](CC(C)C)C(=O)NCC(=O)N(C)[C@@H]([C@@H](C)O)C(=O)N(C)[C@@H](Cc2ccccc2)C(=O)N(C)[C@@H](CC)C(=O)N[C@@H](COC(C)(C)C)C(=O)N(C)[C@@H](C)C(=O)N(C)[C@@H](C(C)C)C(=O)N1C [pd071] (cyclo(A[NMeL]G[NMeT][NMeF][NMeAbu]S(tBu)[NMeA][NMeV][NMeAbu][NMedβ3hAla][dV][NMeL][NMeV])) | 13.3 µL/min/mg | 6.2 µL/min/mg Protein | 0.22 ×10⁻⁶ cm/s | 0.22 10^-6 cm/sec |  |  | 
6 | CC[C@@H]1NC(=O)[C@H]([C@@H](C)O)NC(=O)[C@H](Cc2ccccc2)N(C)C(=O)[C@H](CC(C)C)N(C)C(=O)[C@H](C(C)C)N(C)C(=O)[C@H](CC)N(C)C(=O)[C@H]([C@@H](C)CC)NC(=O)[C@H](CC(C)C)N(C)C(=O)[C@H](C)N(C)C(=O)[C@H](C)NC(=O)C[C@@H](C)N(C)C(=O)[C@H](CC(C)C)N(C)C(=O)[C@H](C)N(C)C(=O)CN(C)C1=O [pd072] (cyclo(A[NMeA][NMeL]I[NMeAbu][NMeV][NMeL][NMeF]T[Abu][Sar][NMeA][NMeL][NMedβ3hAla])) | 22.4 µL/min/mg | 16.6 µL/min/mg Protein | < 0.13 ×10⁻⁶ cm/s | <0.13 10^-6 cm/sec |  |  | 
7 | CC[C@H]1C(=O)N(C)[C@@H](CC(C)C)C(=O)N2CCC[C@H]2C(=O)N(C)[C@@H](CC)C(=O)N[C@@H](CCc2ccccc2)C(=O)N(C)[C@@H](C)C(=O)N(C)[C@@H](CC)C(=O)N[C@@H](C(C)C)C(=O)N(C)[C@H](C)CC(=O)N(C)CC(=O)N(C)[C@@H](Cc2ccccc2)C(=O)N[C@@H]([C@@H](C)O)C(=O)N(C)[C@@H](CC(C)C)C(=O)N[C@@H](C(C)C)C(=O)N1C [pd073] (cyclo([NMeA][NMeAbu]V[NMedβ3hAla][Sar][NMeF]T[NMeL]V[NMeAbu][NMeL]P[NMeAbu][hPhe])) | 24.3 µL/min/mg | 2.9 µL/min/mg Protein | < 0.12 ×10⁻⁶ cm/s | <0.12 10^-6 cm/sec |  |  | 
8 | CC[C@H](C)[C@@H]1NC(=O)[C@H]([C@@H](C)CC)N(C)C(=O)[C@@H](C)NC(=O)C[C@@H](C(=O)N2CCCCC2)N(C)C(=O)[C@H](Cc2ccccc2)N(C)C(=O)[C@H](C(C)C)NC(=O)CCN(C)C(=O)[C@H](CC)N(C)C(=O)[C@H](CC(C)C)N(C)C(=O)[C@H](C)NC(=O)CN(C)C(=O)[C@H](CC(C)C)N(C)C(=O)CCN(C)C(=O)[C@H](Cc2ccccc2)N(C)C1=O [pd081] ([dA][NMeI]I[NMeF][NMeβAla][NMeL][Sar]A[NMeL][NMeAbu][NMeβAla]V[NMeF][NMeD]-Piperidide; lactam N-14) |  |  |  |  | 5.7 µL/min/mg Protein | 0.02 ×10⁻⁶ cm/s | 0.02 10^-6 cm/sec

Further lines, with some results ahead:

Row | microsomal CLint at 1 µM [1, 3] | Mouse Hepatic Microsome CLh,int NADPH(-) [1, 4] | Papp A→B [2, 5] | Caco2 Papp (10^-6 cm/sec) (Caco-2 cells; [6]) | SMILES | Mouse Hepatic Microsome CLh,int NADPH(-) [1] | Papp A→B [2] | Caco2 Papp (10^-6 cm/sec) (Caco-2 cells; Caco-2)
9 | 35.6 µL/min/mg | 42.8 µL/min/mg Protein | 0.17 ×10⁻⁶ cm/s | 0.17 10^-6 cm/sec | CC[C@@H]1NC(=O)[C@H](CC(C)C)N(C)C(=O)[C@H](CC(C)C)NC(=O)[C@H](C)N(C)C(=O)C[C@@H](C(=O)N2CCCCC2)N(C)C(=O)[C@H](C)N(C)C(=O)[C@H](CC(C)C)NC(=O)[C@H](CC(C)C)N(C)C(=O)CNC(=O)[C@H]([C@@H](C)CC)N(C)C(=O)[C@H](Cc2ccccc2)N(C)C(=O)[C@H](C)NC(=O)[C@H]([C@@H](C)CC)NC(=O)[C@H](Cc2ccccc2)N(C)C1=O [pd075] ([NMeA]L[NMeL][Abu][NMeF]IA[NMeF][NMeI]G[NMeL]L[NMeA][NMeD]-Piperidide; lactam N-14) |  |  | 
10 | 40 µL/min/mg | 40.3 µL/min/mg Protein | 0.32 ×10⁻⁶ cm/s | 0.32 10^-6 cm/sec | CCCCN1CC(=O)N(C)[C@@H](Cc2ccccc2)C(=O)N[C@@H](COC(C)(C)C)C(=O)N(C)[C@@H](CC(C)C)C(=O)NCCC(=O)N(C)[C@@H](C)C(=O)N[C@@H]([C@@H](C)CC)C(=O)N(C)[C@@H](CC(C)C)C(=O)N[C@@H](C(C)C)C(=O)N(C)[C@H](C(=O)N2CCCCC2)CC(=O)N(C)CCC(=O)N(C)[C@@H](CC(C)C)C(=O)N[C@@H]([C@@H](C)CC)C(=O)N(C)[C@@H](Cc2ccccc2)C1=O [pd077] ([NMeβAla][NMeL]I[NMeF][NBuGly][NMeF]S(tBu)[NMeL][βAla][NMeA]I[NMeL]V[NMeD]-Piperidide; lactam N-14) |  |  | 
11 | 28.3 µL/min/mg | 22.9 µL/min/mg Protein | 2.75 ×10⁻⁶ cm/s | 2.75 10^-6 cm/sec | CC[C@@H]1NC(=O)[C@H](CC(C)C)N(C)C(=O)C[C@@H](C(=O)N2CCCCC2)N(C)C(=O)[C@H](C(C)C)NC(=O)[C@H](CC(C)C)N(C)C(=O)[C@H](C)NC(=O)[C@H](CC)N(C)C(=O)[C@H](C(C)C)NC(=O)[C@H](CC(C)C)N(C)C(=O)[C@H](C)N(C)C(=O)[C@H](Cc2ccccc2)N(C)C(=O)[C@H](C(C)C)NC(=O)[C@@H]2CCCN2C(=O)[C@H](C(C)C)N(C)C1=O [pd078] ([NMeL][Abu][NMeV]PV[NMeF][NMeA][NMeL]V[NMeAbu]A[NMeL]V[NMeD]-Piperidide; lactam N-14) |  |  | 
12 | 26.1 µL/min/mg | 38.4 µL/min/mg Protein | 0.12 ×10⁻⁶ cm/s | 0.12 10^-6 cm/sec | CC[C@H](C)[C@@H]1NC(=O)[C@H](CC(C)C)N(C)C(=O)[C@H](CC(C)C)NC(=O)[C@H](C)N(C)C(=O)C[C@@H](C(=O)N2CCCCC2)N(C)C(=O)[C@H](C)N(C)C(=O)[C@H](CC(C)C)NC(=O)[C@H](C(C)C)N(C)C(=O)[C@H](CC(C)C)N(C)C(=O)CNC(=O)[C@H]([C@@H](C)CC)N(C)C(=O)[C@H](Cc2ccccc2)N(C)C(=O)[C@H](C)NC(=O)[C@H](Cc2ccccc2)N(C)C1=O [pd079] ([NMeA]L[NMeL]I[NMeF]A[NMeF][NMeI]G[NMeL][NMeV]L[NMeA][NMeD]-Piperidide; lactam N-14) |  |  | 
13 | 29.3 µL/min/mg | 27.8 µL/min/mg Protein | 0.25 ×10⁻⁶ cm/s | 0.25 10^-6 cm/sec | CC[C@@H]1NC(=O)[C@H](C(C)C)N(C)C(=O)[C@H](C)N(C)C(=O)[C@H](Cc2ccccc2)N(C)C(=O)[C@H](CC(C)C)NC(=O)[C@H](Cc2ccccc2)N(C)C(=O)[C@H](C(C)C)NC(=O)[C@H](CC(C)C)N(C)C(=O)[C@H]([C@@H](C)CC)NC(=O)[C@H](CC(C)C)N(C)C(=O)CN(C)C(=O)C[C@@H](C(=O)N2CCCCC2)N(C)C(=O)CNC(=O)[C@H](C)N(C)C1=O [pd080] ([Sar][NMeL]I[NMeL]V[NMeF]L[NMeF][NMeA][NMeV][Abu][NMeA]G[NMeD]-Piperidide; lactam N-14) |  |  | 
